Test results published in patent US10750743B2, “Pyridazinone herbicides” (E.I. DU PONT DE NEMOURS AND COMPANY, priority 2015, dated 2020).

How the values were obtained:
Type in all cases: in vivo
kochia (Kochia scoparia) [1] = assay: Test A postemergence application, visual injury rating; conditions: 0 to 100 scale, 0 no effect, 100 complete control
How it was run: (§1)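 Compounds in a surfactant-containing solvent were applied as a directed soil spray preemergence, or postemergence to plants 2-10 cm tall at the one- to two-leaf stage, in loam-sand blend. After about 10 d in the greenhouse, injury was rated visually against untreated controls on a 0-100 scale (100 = complete control).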

[2] = tested on: galium (catchweed bedstraw, Galium aparine); assay: as above; conditions: 0 to 100 scale, 0 no effect, 100 complete control
How it was run: as §1

[3] = tested on: foxtail, giant (giant foxtail, Setaria faberii); assay: as above; conditions: 0 to 100 scale, 0 no effect, 100 complete control
How it was run: as §1

[4] = tested on: wheat (Triticum aestivum); assay: as above; conditions: 0 to 100 scale, 0 no effect, 100 complete control
How it was run: as §1

[5] = tested on: pigweed (Amaranthus retroflexus); assay: as above; conditions: 0 to 100 scale, 0 no effect, 100 complete control
How it was run: as §1

[6] = tested on: blackgrass (Alopecurus myosuroides); assay: as above; conditions: 0 to 100 scale, 0 no effect, 100 complete control
How it was run: as §1

corn (Zea mays) = assay: as above; conditions: 0 to 100 scale, 0 no effect, 100 complete control
How it was run: as §1

[7] = tested on: barnyardgrass (Echinochloa crus-galli); assay: as above; conditions: 0 to 100 scale, 0 no effect, 100 complete control
How it was run: as §1

[8] = tested on: ryegrass, It. (Italian ryegrass, Lolium multiflorum); assay: as above; conditions: 0 to 100 scale, 0 no effect, 100 complete control
How it was run: as §1

[9] = tested on: ragweed (common ragweed, Ambrosia elatior); assay: as above; conditions: 0 to 100 scale, 0 no effect, 100 complete control
How it was run: as §1

kochia (Kochia scoparia) [10] = assay: Test A preemergence, directed soil spray, visual injury rating; conditions: 0 is no effect, 100 is complete control
How it was run: as §1

[11] = tested on: foxtail, giant (giant foxtail, Setaria faberii); assay: as above; conditions: 0 is no effect, 100 is complete control
How it was run: as §1

[12] = tested on: pigweed (Amaranthus retroflexus); assay: as above; conditions: 0 is no effect, 100 is complete control
How it was run: as §1

[13] = tested on: barnyardgrass (Echinochloa crus-galli); assay: as above; conditions: 0 is no effect, 100 is complete control
How it was run: as §1

[14] = tested on: ryegrass, It. (Italian ryegrass, Lolium multiflorum); assay: as above; conditions: 0 is no effect, 100 is complete control
How it was run: as §1

[15] = tested on: ragweed (common ragweed, Ambrosia elatior); assay: as above; conditions: 0 is no effect, 100 is complete control
How it was run: as §1

[16] = tested on: sedge, umbrella (small-flower umbrella sedge, Cyperus difformis); assay: Test B flooded paddy test, visual rating; conditions: Flood, 250 g ai/ha, applied to paddy water, rated after 13 to 15 d
How it was run: (§2)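 Plants grown to the 2-leaf stage. At treatment, pots were flooded to 3 cm above the soil, compound was applied directly to the paddy water, and that depth was held throughout. After 13 to 15 d in the greenhouse, response was rated visually against controls on a 0 (no effect) to 100 (complete control) scale.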

[17] = tested on: ducksalad (Heteranthera limosa); assay: Test B flooded paddy test, visual rating; conditions: Flood, 250 g ai/ha, applied to paddy water, rated after 13 to 15 d
How it was run: as §2

rice (Oryza sativa) = assay: Test B flooded paddy test, visual rating; conditions: Flood, 250 g ai/ha, applied to paddy water, rated after 13 to 15 d
How it was run: as §2

[18] = tested on: barnyardgrass (Echinochloa crus-galli); assay: Test B flooded paddy test, visual rating; conditions: Flood, 250 g ai/ha, applied to paddy water, rated after 13 to 15 d
How it was run: as §2

Row | SMILES | Kochia plant response rating (kochia (Kochia scoparia) [1]; 125 g ai/ha) | Galium plant response rating ([2]; 125 g ai/ha) | Foxtail, Giant plant response rating ([3]; 125 g ai/ha) | Wheat plant response rating ([4]; 125 g ai/ha) | Pigweed plant response rating ([5]; 125 g ai/ha) | Blackgrass plant response rating ([6]; 125 g ai/ha) | Corn plant response rating (corn (Zea mays); 125 g ai/ha) | Barnyardgrass plant response rating ([7]; 125 g ai/ha) | Ryegrass, It. plant response rating ([8]; 125 g ai/ha) | Ragweed plant response rating ([9]; 125 g ai/ha) | Plant response rating (0 to 100 scale), Kochia (kochia (Kochia scoparia) [10]; 125 g ai/ha) | Plant response rating (0 to 100 scale), Foxtail, Giant ([11]; 125 g ai/ha) | Plant response rating (0 to 100 scale), Pigweed ([12]; 125 g ai/ha) | Plant response rating (0 to 100 scale), Barnyardgrass ([13]; 125 g ai/ha) | Plant response rating (0 to 100 scale), Ryegrass, It. ([14]; 125 g ai/ha) | Plant response rating (0 to 100 scale), Ragweed ([15]; 125 g ai/ha) | Sedge, Umbrella plant response rating (0 to 100 scale, 0 is no effect, 100 is complete control) [16] | Ducksalad plant response rating (0 to 100 scale, 0 is no effect, 100 is complete control) [17] | Rice plant response rating (0 to 100 scale, 0 is no effect, 100 is complete control) (rice (Oryza sativa)) | Barnyardgrass plant response rating (0 to 100 scale, 0 is no effect, 100 is complete control) [18] | further results
1 | CCC(=O)Oc1c(C)nn(C)c(=O)c1-c1ccc(Cl)c2oc(C)cc12 [Compound 52] | 0 | 90 | 0 | 0 | 60 | 0 | 0 | 0 | 40 | 20 | 0 | 0 | 70 | 0 | 50 | 0 | 0 | 0 | 0 | 0 | Kochia plant response rating (kochia (Kochia scoparia) [1]; 500 g ai/ha): 20; Galium plant response rating ([2]; 500 g ai/ha): 90; Foxtail, Giant plant response rating ([3]; 500 g ai/ha): 0; Wheat plant response rating ([4]; 500 g ai/ha): 0; Pigweed plant response rating ([5]; 500 g ai/ha): 60; Blackgrass plant response rating ([6]; 500 g ai/ha): 10; Corn plant response rating (corn (Zea mays); 500 g ai/ha): 0; Barnyardgrass plant response rating ([7]; 500 g ai/ha): 10; Ryegrass, It. plant response rating ([8]; 500 g ai/ha): 60; Ragweed plant response rating ([9]; 500 g ai/ha): 60; Plant response rating (0 to 100 scale), Kochia (kochia (Kochia scoparia) [10]; 500 g ai/ha): 0; Plant response rating (0 to 100 scale), Foxtail, Giant ([11]; 500 g ai/ha): 0; Plant response rating (0 to 100 scale), Pigweed ([12]; 500 g ai/ha): 100; Plant response rating (0 to 100 scale), Barnyardgrass ([13]; 500 g ai/ha): 0; Plant response rating (0 to 100 scale), Ryegrass, It. ([14]; 500 g ai/ha): 70; Plant response rating (0 to 100 scale), Ragweed ([15]; 500 g ai/ha): 0
2 | Cc1nn(C)c(=O)c(-c2ccc(Cl)c3ccsc23)c1O [Compound 55] | 100 | 100 | 0 | 0 | 60 | 10 | 0 | 10 | 70 | 30 | 20 | 0 | 60 | 0 | 100 | 0 | 0 | 0 | 0 | 0 | Kochia plant response rating (kochia (Kochia scoparia) [1]; 31 g ai/ha): 40; Galium plant response rating ([2]; 31 g ai/ha): 80; Foxtail, Giant plant response rating ([3]; 31 g ai/ha): 0; Wheat plant response rating ([4]; 31 g ai/ha): 0; Pigweed plant response rating ([5]; 31 g ai/ha): 30; Blackgrass plant response rating ([6]; 31 g ai/ha): 0; Corn plant response rating (corn (Zea mays); 31 g ai/ha): 0; Barnyardgrass plant response rating ([7]; 31 g ai/ha): 0; Ryegrass, It. plant response rating ([8]; 31 g ai/ha): 40; Ragweed plant response rating ([9]; 31 g ai/ha): 0; Plant response rating (0 to 100 scale), Kochia (kochia (Kochia scoparia) [10]; 31 g ai/ha): 0; Plant response rating (0 to 100 scale), Foxtail, Giant ([11]; 31 g ai/ha): 0; Plant response rating (0 to 100 scale), Pigweed ([12]; 31 g ai/ha): 0; Plant response rating (0 to 100 scale), Barnyardgrass ([13]; 31 g ai/ha): 0; Plant response rating (0 to 100 scale), Ryegrass, It. ([14]; 31 g ai/ha): 80; Plant response rating (0 to 100 scale), Ragweed ([15]; 31 g ai/ha): 0
